This is an account of results in patent publication US20050256301A1 (The University of Queensland, priority 1998, published 2005).

Bridge positions count the residues as written; N and C are the ends. Ends that are not written are not given here. Peptide text beside a SMILES is read from it.

Series [1] relates to bovine adrenal chromaffin cells. It is filed as cell-based.
In series [2] the target is endoproteinase Glu-C (Endo Glu-C) (Staphylococcus aureus, UniProt P0C1U8). The settings on record: 24 h, pH 8.
The nature of a further series: in vitro. The following applies: human, plasma.

Sequence of endoproteinase Glu-C (Endo Glu-C) (P0C1U8 69-336 limits assumed): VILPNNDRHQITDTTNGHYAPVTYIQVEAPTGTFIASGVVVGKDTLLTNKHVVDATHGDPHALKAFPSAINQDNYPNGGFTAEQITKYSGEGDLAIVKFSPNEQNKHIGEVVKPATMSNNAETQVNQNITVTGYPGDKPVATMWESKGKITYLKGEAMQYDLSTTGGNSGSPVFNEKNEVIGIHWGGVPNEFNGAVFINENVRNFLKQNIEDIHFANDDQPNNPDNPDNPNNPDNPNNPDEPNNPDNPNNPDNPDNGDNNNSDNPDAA

As to `CC(C)C[C@@H]1NC(=O)[C@H](CC(N)=O)NC(=O)[C@H](CO)NC(=O)[C@H](Cc2c[nH]cn2)NC(=O)[C@H](CCC(=O)O)NC(=O)[C@H](CC(C)C)NC(=O)[C@H](Cc2c[nH]cn2)NC(=O)[C@@H]2CSSC[C@@H]3NC(=O)CNC(=O)CNC(=O)CNC(=O)[C@H](C)NC(=O)[C@H](C)NC(=O)CNC(=O)CNC(=O)[C@H](CSSC[C@H](NC3=O)C(=O)N[C@@H](CO)C(=O)N[C@@H](CC(N)=O)C(=O)N3CCC[C@H]3C(=O)N[C@@H](C(C)C)C(=O)N2)NC1=O` [cMII-6] (cyclo(AAGGGCCSNPVCHLEHSNLCGG); disulfide 6-12, 7-20), the “inhibition of nicotine-evoked catecholamine release, activity relative to linear MII” value (“inhibition … activity relative to linear MII” for short) in series [1] was “comparable to linear MII”. In addition, the “intact peptide remaining with Endo Glu-C” value in series [2] was “remains entirely intact”. In addition, in the series “in vitro”, the fraction remaining at 24 h was around 90%.
Turning to `CC(C)C[C@@H]1NC(=O)[C@H](CC(N)=O)NC(=O)[C@H](CO)NC(=O)[C@H](Cc2c[nH]cn2)NC(=O)[C@H](CCC(=O)O)NC(=O)[C@H](CC(C)C)NC(=O)[C@H](Cc2c[nH]cn2)NC(=O)[C@@H]2CSSC[C@@H]3NC(=O)CNC(=O)CNC(=O)[C@H](C)NC(=O)[C@H](C)NC(=O)CNC(=O)[C@H](C)NC(=O)CNC(=O)CNC(=O)[C@H](CSSC[C@H](NC3=O)C(=O)N[C@@H](CO)C(=O)N[C@@H](CC(N)=O)C(=O)N3CCC[C@H]3C(=O)N[C@@H](C(C)C)C(=O)N2)NC1=O` [cMII-7, Gly Cys Cys Ser Asn Pro Val Cys His Leu GIu His Ser Asn Leu Cys Gly Gly Ala Gly Ala Ala Gly] (cyclo(AAGGCCSNPVCHLEHSNLCGGAG); disulfide 5-11, 6-19), in series [1], the “inhibition … activity relative to linear MII” value is recorded as “comparable to linear MII”. This compound came in with a fraction remaining at 24 h in the series “in vitro” of around 90%.
Take “Gly Cys Cys Ser Asn Pro Val Cys His Leu Glu His Ser Asn Leu Cys Gly Gly Ala Ala Gly (GCCSNPVCHLEHSNLCGGAAG; also: cyclic, ring type and places not given here) [cMII-5, cyclic MII with five residue linker GGAAG]”: in series [1], the “inhibition … activity relative to linear MII” value was “comparable to linear MII”.

One may read the amount remaining as the share of the starting amount still present when the sample was taken.
